The nature of data set [1]: Lipophilicity by RP-HPLC (methanol/water, RP-18 column). Format: physicochemical. To be noted: for −S (slope of the regression curve), RP–HPLC / log kw: methanol/water, RP-HPLC; for log kw: extrapolated to zero methanol concentration, 25 °C; for Φ0 (chromatographic lipophilicity parameter), RP–HPLC: Φ0 = −log kw/S. The procedure:
The HPLC experiments were performed on the Shimadzu HPLC system (Kyoto, Japan) equipped with solvent delivery pump LC-20AD, UV–VIS detector model SPD-20A, degasser model DGU-20A5, a column oven model CTO-20A, and a column Superspher® 100 RP-18 (4 μm), Merck (Darmstadt, Germany). Methanol and water for HPLC from POCH (Gliwice, Poland) were used as solvents. Mobile phase methanol/water varied in the various ratios. Methanol concentration expressed as volume fraction v/v, varied in the range from 0.55 to 0.95 in constant steps of 0.05. Compounds 1–28 were dissolved in methanol (1 mg/mL). The mobile phase flow rate was 0.7 mL/min. The injection volume was 0.02 mL. All analyzes were performed at 25 °C. Experiments were performed in triplicate with similar results.
The retention coefficient k was calculated from the following relationship:(1) k=tr/tm−1, where tr [min]—retention time, and tm [min]—time for dead volume (measured by use of uracil).
To determine the linear relationship between the values of the log k parameter and the concentration of methanol in the mobile phase, the Soczewiński–Wachtmeister equation was used:(2) logk= log kw+SΦ, where log kw —value extrapolated to zero methanol concentration, Φ —methanol concentration in the mobile phase (volume fraction v/v), and S—the slope of the regression curve.
The parameter Φ0 was calculated from the equation:(3) Φ0=−log kw/S.

Data set [2] in a line: Lipophilicity by RP-TLC (methanol/water, HPTLC 60RP-18 plates). Format: physicochemical. To be noted: for −S (slope of the regression curve), RP–TLC / RM0: methanol/water, RP-TLC; for RM0: extrapolated to zero methanol concentration, 22 °C; for Φ0 (chromatographic lipophilicity parameter), RP–TLC: Φ0 = −RM0/S. How it is done: Specifically, 10 × 10 cm plates with silica gel HPTLC 60RP-18 WF254s (Merck, Darmstadt, Niemcy) were used as the stationary phase. Methanol and water for HPLC from POCH (Gliwice, Poland) were used as solvents. Methanol concentration expressed as volume fraction v/v, varied in the range from 0.5 to 0.7 in constant steps of 0.05. Test compounds were dissolved in methanol (2 mg/mL), and then samples (0.01 mL) of each were applied to plates, which were developed in a horizontal DS chamber (Chromdes, Lublin, Poland).
The developing distance was 8 cm. Developed plates were air-dried and observed under 254 nm ultraviolet lamp. All analyzes were performed at 22 °C. Experiments were performed in triplicate with similar results.
For all the compounds, the relative lipophilicity RM values for five methanol–water mobile phases were calculated by the use of the following formula:(4) RM=log[1−RF/RF].
The linear relationship between the RM values and the concentration of methanol in the mobile phase to determine the lipophilicity parameters RM0 is described by the following equation:(5) RM=RM0+SΦ, where Φ —methanol concentration in the mobile phase (volume fraction v/v), and S—the slope of the regression curve.
The quantity Φ0 was calculated from the following equation:(6) Φ0=−RM0/S.

For the molecule `CC(C)NC1=NC(=O)C(C(C)C)S1` (stereo not drawn) [Compound 4], in data set [1], the “−S (slope of the regression curve), RP–HPLC” value stood at 3.603; the log kw is 2.28; the “Φ0 (chromatographic lipophilicity parameter), RP–HPLC” value turned out to be 0.633. For the same molecule, in data set [2], the “−S (slope of the regression curve), RP–TLC” value is reported as 2.127; the RM0 was 1.41; the “Φ0 (chromatographic lipophilicity parameter), RP–TLC” value turned out to be 0.663.

Take `O=C1N=C(NC23CC4CC(CC(C4)C2)C3)SC1c1ccc(Br)cc1` (stereo not drawn) [Compound 25, 2-(adamantan-1-ylamino)-5-(4-bromophenyl)thiazol-4(5H)-one]: in data set [1], the “−S (slope of the regression curve), RP–HPLC” value is 5.578; the log kw is given as 5.63; the “Φ0 (chromatographic lipophilicity parameter), RP–HPLC” value amounted to 1.009. Moreover, in data set [2], the “−S (slope of the regression curve), RP–TLC” value was 3.277; the RM0 is listed as 3.56; the “Φ0 (chromatographic lipophilicity parameter), RP–TLC” value came out at 1.086.

As for `O=C1N=C(NC23CC4CC(CC(C4)C2)C3)SC12CCCCC2` [Compound 26], in data set [1], the “−S (slope of the regression curve), RP–HPLC” value amounted to 5.192; the log kw is given as 4.49; the “Φ0 (chromatographic lipophilicity parameter), RP–HPLC” value was determined as 0.865. In data set [2], the “−S (slope of the regression curve), RP–TLC” value worked out at 3.520; the RM0 is 3.09; the “Φ0 (chromatographic lipophilicity parameter), RP–TLC” value turned out to be 0.879.

With `CC1(C)SC(NC23CC4CC(CC(C4)C2)C3)=NC1=O` [Compound 23], in data set [1], the “−S (slope of the regression curve), RP–HPLC” value is given as 4.392; the log kw is given as 3.54; the “Φ0 (chromatographic lipophilicity parameter), RP–HPLC” value was found to be 0.806. Further, in data set [2], the “−S (slope of the regression curve), RP–TLC” value worked out at 2.446; the RM0 is given as 2.11; the “Φ0 (chromatographic lipophilicity parameter), RP–TLC” value was 0.863.

For `CC(C)(C)NC1=NC(=O)C2(CCC2)S1` [Compound 18], in data set [1], the “−S (slope of the regression curve), RP–HPLC” value worked out at 3.297; the log kw was 2.15; the “Φ0 (chromatographic lipophilicity parameter), RP–HPLC” value was 0.652. In data set [2], the “−S (slope of the regression curve), RP–TLC” value is listed as 2.476; the RM0 is 1.69; the “Φ0 (chromatographic lipophilicity parameter), RP–TLC” value is recorded as 0.683.

As to `CCCC1SC(NC23CC4CC(CC(C4)C2)C3)=NC1=O` (stereo not drawn) [Compound 21], in data set [1], the “−S (slope of the regression curve), RP–HPLC” value is 4.859; the log kw was 4.08; the “Φ0 (chromatographic lipophilicity parameter), RP–HPLC” value stood at 0.840. Besides, in data set [2], the “−S (slope of the regression curve), RP–TLC” value was determined as 2.564; the RM0 was 2.33; the “Φ0 (chromatographic lipophilicity parameter), RP–TLC” value was found to be 0.909.

As to `CC(C)NC1=NC(=O)C2(CCC2)S1` [Compound 9], in data set [1], the “−S (slope of the regression curve), RP–HPLC” value is on record as 2.890; the log kw is reported as 1.79; the “Φ0 (chromatographic lipophilicity parameter), RP–HPLC” value turned out to be 0.619. Further, in data set [2], the “−S (slope of the regression curve), RP–TLC” value is 1.990; the RM0 was 1.37; the “Φ0 (chromatographic lipophilicity parameter), RP–TLC” value is on record as 0.691.

In the case of `CC1SC(NC(C)(C)C)=NC1=O` (stereo not drawn) [Compound 10], in data set [1], the “−S (slope of the regression curve), RP–HPLC” value was 3.122; the log kw was 1.74; the “Φ0 (chromatographic lipophilicity parameter), RP–HPLC” value came to 0.557. In data set [2], the “−S (slope of the regression curve), RP–TLC” value is given as 2.393; the RM0 is recorded as 1.57; the “Φ0 (chromatographic lipophilicity parameter), RP–TLC” value is recorded as 0.658.

On to `CCC1SC(NC(C)C)=NC1=O` (stereo not drawn) [Compound 2], for which, in data set [1], the “−S (slope of the regression curve), RP–HPLC” value worked out at 3.254; the log kw was 1.86; the “Φ0 (chromatographic lipophilicity parameter), RP–HPLC” value is on record as 0.571. Besides, in data set [2], the “−S (slope of the regression curve), RP–TLC” value is on record as 2.075; the RM0 was 1.39; the “Φ0 (chromatographic lipophilicity parameter), RP–TLC” value stood at 0.668.

In the case of `CC(C)(C)NC1=NC(=O)C(C)(C)S1` [Compound 14], in data set [1], the “−S (slope of the regression curve), RP–HPLC” value was 3.320; the log kw is 2.02; the “Φ0 (chromatographic lipophilicity parameter), RP–HPLC” value is 0.608. Further, in data set [2], the “−S (slope of the regression curve), RP–TLC” value was found to be 1.826; the RM0 was 1.19; the “Φ0 (chromatographic lipophilicity parameter), RP–TLC” value turned out to be 0.652.

(Values after paper PMC10418735, “Lipophilic Studies and In Silico ADME Profiling of Biologically Active 2-Aminothiazol-4(5H)-one Derivatives” (International Journal of Molecular Sciences, 2023).)
